Here are results for 59 compounds from PubChem BioAssay AID977621 (Broad Institute, 2014).

Test [1] deals with E. coli H69 humanized mutant ribosome RFP strain growth, fluorescence, 24 h. Description: growth inhibition of wild-type GFP E. coli, dose response, H69 mutant RFP, cherry-pick (AID 977621).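 Also: wild-type GFP and H69 mutant RFP strains grown together 50/50 in each well.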 The conditions noted are these: test 2.
Test [2] relates to E. coli wild-type GFP strain growth, fluorescence, 24 h. The test is described as above.
Where [3] appears, read: E. coli mixed culture, 24 h, measured here: total growth OD600, test 2.

Records with an inconclusive call do not appear. Calls of active or inactive are those of the source.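 The calls were made as follows: active = Wild-type ribosome reporter drop at least double the humanized mutant ribosome reporter drop, growth loss under a set limit; inconclusive = no clear call, values can overlap the other calls; inactive = the rest.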 Where only a bound is given, the exact number is not on record here.

Take `COc1ccc(C2CC(=O)CCN2S(=O)(=O)c2ccc(C)cc2)cc1` (centres undefined): the half-maximal activity concentration (AC50) – broadly, the concentration at which the activity in the assay is half-maximal – in test [1] was 3.86 µM.

Regarding `Cc1ccccc1CSc1nnc(-c2ccccn2)n1C`, in test [1], the concentration at half-maximal activity (AC50) worked out at 28.3 µM.

Consider `COC(C(=O)Nc1ccnn1C1CCN(Cc2ccc(Cl)s2)CC1)c1ccccc1` (centres undefined), for which the AC50 in test [1] was more than 100 µM.

Regarding `O=C(O)c1cc(-c2ccc(-c3ccc(F)cc3)o2)nc2ccccc12`, the half-maximal activity concentration (AC50) in test [1] was determined as 39.6 µM.

Regarding `O=C(c1ccc(-n2cccn2)cc1)N1CCc2ccccc2C1`, the half-maximal activity concentration (AC50) in test [1] is 52.2 µM.

In test [1], `CC(C)n1nnnc1C1c2ccccc2C(=O)N1CCOc1ccccc1` (centres undefined) displayed a concentration at half-maximal activity (AC50) of 0.989 µM.

Compound `O=C1c2ccccc2C(c2nnnn2C2CCCCC2)N1CCc1ccc(O)cc1` (centres undefined) had a half-maximal activity concentration (AC50) in test [1] of more than 100 µM.

`Cc1ccccc1Nc1c(-c2cccnc2)nc2ccc(Br)cn12`: the AC50 in test [1] was more than 100 µM.

Compound `CSc1cccc(NC(=O)CCc2ccccc2)c1` returned an AC50 in test [1] of 20 µM.

Compound `O=C(CSc1nc2ccccc2n1S(=O)(=O)c1cccc([N+](=O)[O-])c1)NCCc1ccccc1` yielded an AC50 in test [1] of more than 100 µM.

With `C[C@@H]1CN([C@@H](C)CO)C(=O)c2cc(NS(=O)(=O)c3ccccc3)ccc2O[C@@H]1CN(C)Cc1ccc(C(=O)Nc2ccccc2N)cc1`, the concentration at half-maximal activity (AC50) in test [2] (setting [3]) is 50.6 µM.

For the compound `CSc1ccccc1NC(=O)CN(C)CC(=O)c1c(C)[nH]c2ccccc12`, the AC50 in test [2] is > 100 µM (inactive); in test [2] (setting [3]), 46.2 µM.

For the compound `COc1ccc(NC(=O)CN(c2ccccc2OC)S(=O)(=O)c2cccs2)cc1Cl`, the half-maximal activity concentration (AC50) in test [2] (setting [3]) is more than 100 µM.

For the compound `Cc1cc(CNC(=O)COc2ccc(C)c(C)c2)c2ccccc2n1`, the AC50 in test [2] is > 100 µM (inactive).

In test [2] (setting [3]), `CCCn1c(C(C)Nc2nc(-c3ccc(C)cc3)cs2)nc2ccccc21` (centres undefined) gave a concentration at half-maximal activity (AC50) of more than 100 µM.

Take `CCc1ccc(C(=O)Nc2cccnc2Oc2ccc(Cl)cc2)cc1`: the half-maximal activity concentration (AC50) in test [2] (setting [3]) was more than 100 µM.

Turning to `O=C(NCc1nnc(SCc2ccccc2)n1-c1ccccc1)C12CC3CC(CC(C3)C1)C2`, the AC50 in test [2] is > 100 µM (inactive); in test [2] (setting [3]) it was 38.6 µM.

Turning to `O=C(NCc1nnnn1-c1ccc(Cl)cc1)c1ccc([N+](=O)[O-])o1`, the AC50 in test [2] was > 100 µM (inactive).

In the case of `CN(C)CCCn1c(=O)n(Cc2ccco2)c(=O)c2c3c(sc21)CCCCC3`, the AC50 in test [2] (setting [3]) is more than 100 µM.

As for `O=C(Nc1ccc(S(=O)(=O)N2CCCC2)cc1)c1ccc(OCC2CCCO2)cc1` (centres undefined), the AC50 in test [2] was > 100 µM (inactive).

`Cc1cc(C)nc(SCc2cn3c(C)cccc3n2)n1`: the AC50 in test [2] was > 100 µM (inactive).

Take `Cc1ccc2c(c1C)OC(=O)CC2c1ccccc1` (centres undefined): in test [2], the AC50 is > 100 µM (inactive).

Compound `CC1CCCN(c2ccc(C(=O)NCCc3ccccc3)cn2)C1` (centres undefined) gave a half-maximal activity concentration (AC50) in test [2] (setting [3]) of more than 100 µM.

As for `COc1ccc(OC)c(CN2CCCC(C(=O)c3ccccc3SC)C2)c1` (centres undefined), the AC50 in test [2] is > 100 µM (inactive).

Regarding `Cc1ccc(S(=O)(=O)Nc2ccc3c(c2)C(=O)N([C@H](C)CO)C[C@@H](C)[C@H](CN(C)C(=O)c2ccccc2)OCCCC[C@@H](C)O3)cc1`, in test [2] (setting [3]), the AC50 was more than 100 µM.

Take `Cc1ccc(Oc2ccc(S(=O)(=O)N3CCOCC3)cc2C(N)=O)cc1C`: the AC50 in test [2] is > 100 µM (inactive).

For the compound `Cc1ccc(C2NC(=O)c3[nH]nc(-c4ccccc4)c32)cc1` (centres undefined), the AC50 in test [2] is > 100 µM (inactive); in test [2] (setting [3]), 42.3 µM.

For the compound `C[C@@H]1CN([C@@H](C)CO)C(=O)CCCn2nncc2CO[C@H]1CN(C)C(=O)Nc1cccc(C(F)(F)F)c1`, the AC50 in test [2] was > 100 µM (inactive).

Regarding `O=c1c2ccccc2nc(SCc2ccccc2)n1CC1CCCO1` (centres undefined), in test [2] (setting [3]), the concentration at half-maximal activity (AC50) came to 51.1 µM.

For the compound `COc1ccc(N2C(=O)C3C(C2=O)C3(c2ccccc2)c2ccccc2)cc1` (centres undefined), the AC50 in test [2] was > 100 µM (inactive).

Regarding `O=C(COC(=O)c1ccc([N+](=O)[O-])o1)NC12CC3CC(CC(C3)C1)C2`, the values for the AC50 in test [2] and in test [2] (setting [3]) were > 100 µM (inactive) and more than 100 µM, respectively.

For `O=c1[nH]c(C2CCN(S(=O)(=O)c3ccc4c(c3)OCCO4)CC2)nc2c1nnn2Cc1ccccc1F`, the AC50 in test [2] is > 100 µM (inactive).

As to `O=C1CC(=O)N(Cc2ccccc2)C(=O)N1CCCCCCN1C(=O)CC(=O)N(Cc2ccccc2)C1=O`, in test [2] (measured here: total growth OD600, test 2), the concentration at half-maximal activity (AC50) is more than 100 µM.

As for `N#Cc1ccc(OCC(=O)N2CCN(S(=O)(=O)c3ccc(Cl)s3)CC2)cc1`, the AC50 in test [2] is > 100 µM (inactive).

`CSc1ccccc1OCc1cc(C(=O)N(C)Cc2nonc2C)no1` showed an AC50 in test [2] (setting [3]) of more than 100 µM.

Take `O=C(c1ccco1)N(CCCN1CCOCC1)c1nc(-c2ccc(F)cc2)cs1`: the AC50 in test [2] was > 100 µM (inactive).

With `CCN(C(=O)COC(=O)c1cc(-c2cccs2)nc2ccccc12)C1CCS(=O)(=O)C1` (centres undefined), in test [2], the AC50 is > 100 µM (inactive).

In test [2] (setting [3]), `CC1CCCC(NC(=O)COC(=O)Cc2c[nH]c3ccccc23)C1C` (centres undefined) had an AC50 of more than 100 µM.

Consider `CC(C)N1CC2(CC(c3ccccc3C(F)(F)F)=NO2)CN1C(=O)c1ccco1` (centres undefined), for which the AC50 in test [2] was > 100 µM (inactive).

For `CCOc1ccc(CCNC(=O)CCc2nc3ccccc3[nH]2)cc1OCC`, the AC50 in test [2] was > 100 µM (inactive); in test [2] (setting [3]) it was more than 100 µM.

For the compound `Cc1cc(NC(=O)CN2CCN(c3cccc(Cl)c3)CC2)no1`, the AC50 in test [2] is > 100 µM (inactive).

`CCc1cc2ccc(OC)cc2nc1SCC(=O)N1CCN(C(=O)c2ccco2)CC1` gave a concentration at half-maximal activity (AC50) in test [2] (setting [3]) of 42.2 µM.

As to `Cc1cccc(OCc2nnc(SCC(=O)Nc3ncc(C)s3)o2)c1`, the AC50 was > 100 µM (inactive) in test [2] and more than 100 µM in test [2] (setting [3]).

Take `Cc1nn(-c2ccccc2)c(C)c1CN(C)C(=O)c1ccc(S(=O)(=O)NCc2ccco2)cc1`: the AC50 in test [2] is > 100 µM (inactive).

Take `CC(=O)Nc1cccc(NC(=O)CSc2ccc(-c3cccnc3)nn2)c1`: the AC50 in test [2] is > 100 µM (inactive); in test [2] (setting [3]), 48.7 µM.

With `Cc1n[nH]c(C)c1S(=O)(=O)N1CCCC(C(=O)Nc2ccc(Br)cc2)C1` (centres undefined), in test [2], the AC50 is > 100 µM (inactive).

For the compound `Cc1cccc(C)c1OCc1n[nH]c(=S)n1-c1ccccc1`, the results for the AC50 in test [2] and in test [2] (setting [3]) were > 100 µM (inactive) and 44.8 µM, respectively.

As for `CC(=O)N1c2c(cc(Br)cc2S(=O)(=O)N2CCCCC2)CC1C` (centres undefined), the AC50 in test [2] is > 100 µM (inactive).

With `CCOC(=O)c1nc(C)sc1-c1ccnn1S(=O)(=O)c1ccc(C)cc1`, the AC50 in test [2] was > 100 µM (inactive).

In test [2] (setting [3]), `COc1cccc(OC)c1CNC(=O)CCSCc1ccccc1F` yielded an AC50 of more than 100 µM.

As for `COc1ccc([C@H]2C[C@H](O)C[C@@H](CCn3cc(-c4ccccc4)nn3)O2)cc1`, the AC50 in test [2] is > 100 µM (inactive); in test [2] (setting [3]) it was more than 100 µM.

Compound `O=C1OC[C@@H]2CCCN2C(=O)[C@@H](CC(=O)N(CCO)Cc2ccccc2)C/C=C\C[C@H]1Cc1ccc(F)cc1` showed a concentration at half-maximal activity (AC50) in test [2] (setting [3]) of more than 100 µM.

For the compound `COc1ccccc1CC(=O)NCCc1c[nH]c2ccccc12`, the AC50 in test [2] is > 100 µM (inactive).

For the compound `Cc1ccc(S(=O)(=O)NCc2c(-c3ccccc3)noc2C)cc1`, the concentration at half-maximal activity (AC50) in test [2] (setting [3]) is more than 100 µM.

`COc1ccc(OC)c(NC(=O)COc2ccc(S(=O)(=O)NC(C)C)cc2)c1` showed an AC50 in test [2] (setting [3]) of more than 100 µM.

`O=C1c2ccccc2S(=O)(=O)c2cc(N3CCC(C(=O)N4CCCCC4)CC3)ccc21`: the AC50 in test [2] is > 100 µM (inactive).

In turn, `COc1cc(OC)cc(C(=O)Nc2ccc(S(=O)(=O)Nc3cnc4ccccc4n3)cc2)c1` gave a half-maximal activity concentration (AC50) in test [2] (setting [3]) of 33 µM.

As to `Cc1ccc(C(=O)CSc2nnc(COc3cccc4cccnc34)o2)cc1`, the results for the AC50 in test [2] and in test [2] (setting [3]) were > 100 µM (inactive) and 46.3 µM, respectively.

The compound `C[C@H](CO)N1C[C@H](C)[C@H](CN(C)C(=O)Nc2ccc3c(c2)OCO3)Oc2c(NC(=O)Nc3ccccc3)cccc2C1=O` gave an AC50 in test [2] (setting [3]) of 48.4 µM.
